Data on twelve compounds can be found in patent publication US7727980B2, “Tricyclic androgen receptor modulator compounds and methods” (priority 2001, dated 2010).

The target of test [1] is T1, human AR (Homo sapiens, UniProt P10275).
T1 sequence (P10275 1-920): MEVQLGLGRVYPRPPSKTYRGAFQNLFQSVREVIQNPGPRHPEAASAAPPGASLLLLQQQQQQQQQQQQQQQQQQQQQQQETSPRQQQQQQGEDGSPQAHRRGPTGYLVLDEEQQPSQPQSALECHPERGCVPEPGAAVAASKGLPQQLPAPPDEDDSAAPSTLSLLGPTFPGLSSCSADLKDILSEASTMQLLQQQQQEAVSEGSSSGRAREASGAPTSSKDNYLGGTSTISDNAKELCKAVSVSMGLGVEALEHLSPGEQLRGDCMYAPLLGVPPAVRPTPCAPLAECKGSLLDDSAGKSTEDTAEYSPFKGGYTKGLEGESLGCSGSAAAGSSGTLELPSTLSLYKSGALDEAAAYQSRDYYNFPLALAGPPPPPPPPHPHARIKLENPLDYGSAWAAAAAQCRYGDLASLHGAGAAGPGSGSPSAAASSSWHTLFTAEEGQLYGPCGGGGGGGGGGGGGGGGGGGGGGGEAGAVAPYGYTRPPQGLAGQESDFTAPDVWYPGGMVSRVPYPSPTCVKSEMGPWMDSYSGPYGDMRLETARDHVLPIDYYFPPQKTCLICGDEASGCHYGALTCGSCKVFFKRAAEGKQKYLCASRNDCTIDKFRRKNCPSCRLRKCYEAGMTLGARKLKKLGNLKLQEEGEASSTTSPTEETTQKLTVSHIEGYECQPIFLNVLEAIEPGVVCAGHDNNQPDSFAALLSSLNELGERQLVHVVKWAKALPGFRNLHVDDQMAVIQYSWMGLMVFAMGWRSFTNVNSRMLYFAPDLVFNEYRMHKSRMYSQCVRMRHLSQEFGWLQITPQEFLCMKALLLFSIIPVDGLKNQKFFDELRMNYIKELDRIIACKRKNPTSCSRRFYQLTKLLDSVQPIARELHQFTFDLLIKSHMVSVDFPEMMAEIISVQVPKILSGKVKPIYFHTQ
Kind of test: AR whole cell competitive binding assay (3H-DHT), transfected COS-1 cells. On the set-up: expressed in transfected cells; transient transfection with pRShAR. The note with it: COS-1 cells, 1 nM 3H-DHT, Cheng-Prusoff from IC50.

The target of test [2] is T1, human AR. The test can be described thus: Co-transfection assay, AR agonist activity, CV-1 cells. The test is classed as cell-based. Set-up: expressed in transfected cells; host or cells: CV-1 cells (African green monkey kidney fibroblasts), transient transfection with pRShAR. Conditions: for AR Agonist CV-1 Cells Efficacy (%): percent maximal response relative to reference agonist DHT.

Test [3] deals with T1, human AR. Kind of test: Co-transfection assay, AR antagonist activity in presence of DHT, CV-1 cells. In kind it is cell-based. Set-up: expressed in transfected cells; host or cells: CV-1 cells (African green monkey kidney fibroblasts), transient transfection with pRShAR. Conditions: CV-1 cells; for IC50: antagonist potency or IC50, DHT at its EC50 concentration; for AR Antagonist CV-1 Cells Efficacy (%): percent maximal inhibition, DHT at its EC50 concentration.

[4] abbreviates: AR Agonist CV-1 Cells Potency (nM), agonist potency or EC50.
[5] abbreviates: AR Antagonist CV-1 Cells Potency (nM).

The Ki is the dissociation constant of the complex between target and ligand, obtained from inhibition or displacement.

Where two headings read alike, the source gives them in different places.

Consider `O=c1cc(C(F)(F)F)c2cc3c(cc2[nH]1)c1c(n3CC(F)(F)F)CCC1` [Compound 159, 6-(2,2,2-Trifluoroethyl)-4-trifluoromethyl-6,7,8,9-tetrahydrocyclopentano[i]pyrrolo[2,3-g]quinolin-2(1H)-one], for which the Ki on human AR [1] (AR Binding Ki (nM)) came to 989 nM. At human AR [2] (setting [4]), this compound came in with an EC50 of more than 10000 nM. Moreover, the “AR Agonist CV-1 Cells Efficacy (%)” value at human AR [2] is “na (na = not active (i.e. efficacy of <20 and potency of >10,000))”. Also, the IC50 on human AR [3] (setting [5]) is 15 nM. Besides, the “AR Antagonist CV-1 Cells Efficacy (%)” value at human AR [3] is recorded as 66%.
Turning to `C=CCc1c(C)[nH]c2c1ccc1[nH]c(=O)cc(C(F)(F)F)c12` [Compound 173, 7-Allyl-6-methyl-4-trifluoromethyl-5H-pyrrolo[2,3-f]quinolin-2(1H)-one], on human AR [1] (AR Binding Ki (nM)), the Ki stood at 80 nM. This compound also showed an EC50 at human AR [2] (setting [4]) of 138 nM. Besides, the “AR Agonist CV-1 Cells Efficacy (%)” value on human AR [2] was 41%. For the same compound, the IC50 on human AR [3] (setting [5]) was 1 nM. Moreover, the “AR Antagonist CV-1 Cells Efficacy (%)” value at human AR [3] came to 56%.
On to `CCc1[nH]c2c(ccc3[nH]c(=O)cc(C(F)(F)F)c32)c1C` [Compound 175, 6-Ethyl-7-methyl-4-trifluoromethyl-5H-pyrrolo[2,3-f]quinolin-2(1H)-one], for which the Ki at human AR [1] (AR Binding Ki (nM)) was found to be 239 nM. This compound had an EC50 at human AR [2] (setting [4]) of more than 10000 nM. In addition, on human AR [2], the “AR Agonist CV-1 Cells Efficacy (%)” value was “na (na = not active (i.e. efficacy of <20 and potency of >10,000))”. In addition, the IC50 on human AR [3] (setting [5]) amounted to 11 nM. The “AR Antagonist CV-1 Cells Efficacy (%)” value at human AR [3] is recorded as 78%.
At human AR [1] (AR Binding Ki (nM)), `Cc1[nH]c2c(ccc3[nH]c(=O)cc(C(F)(F)F)c32)c1CCO` [Compound 177, 7-(2-Hydroxyethyl)-6-methyl-4-trifluoromethyl-5H-pyrrolo[2,3-f]quinolin-2(1H)-one] returned a Ki of 31 nM. Moreover, the EC50 on human AR [2] (setting [4]) was more than 10000 nM. Moreover, the “AR Agonist CV-1 Cells Efficacy (%)” value at human AR [2] was “na (na = not active (i.e. efficacy of <20 and potency of >10,000))”. Further, the IC50 at human AR [3] (setting [5]) was 790 nM. Further, at human AR [3], the “AR Antagonist CV-1 Cells Efficacy (%)” value amounted to 98%.
In turn, `CC1CCc2cc3[nH]c(=O)cc(C(F)(F)F)c3cc2N1CC1CC1` (stereo not shown) [Compound 195, 4-Trifluoromethyl-7-methyl-6-cyclopropylmethyl-6,7,8,9-tetrahydropyrido[2,3-g]quinolin-2(1H)-one] returned a Ki on human AR [1] (AR Binding Ki (nM)) of 20 nM. Besides, the “AR Agonist CV-1 Cells Efficacy (%)” value on human AR [2] is 78%. Moreover, at human AR [3] (setting [5]), the IC50 is more than 10000 nM. Moreover, the “AR Antagonist CV-1 Cells Efficacy (%)” value at human AR [3] is “na (na = not active (i.e. efficacy of <20 and potency of >10,000))”.
On to `CC1CCc2cc3[nH]c(=O)cc(C(F)(F)F)c3cc2N1CC(F)(F)F` (stereo not shown) [Compound 197, 4-Trifluoromethyl-7-methyl-6-(2,2,2-trifluoroethyl)-6,7,8,9-tetrahydropyrido[2,3-g]quinolin-2(1H)-one], for which the Ki at human AR [1] (AR Binding Ki (nM)) worked out at 79 nM. For the same compound, the EC50 at human AR [2] (setting [4]) stood at 12 nM. Also, on human AR [2], the “AR Agonist CV-1 Cells Efficacy (%)” value turned out to be 66%. Further, the IC50 at human AR [3] (setting [5]) is more than 10000 nM. The “AR Antagonist CV-1 Cells Efficacy (%)” value at human AR [3] was “na (na = not active (i.e. efficacy of <20 and potency of >10,000))”.
At human AR [1] (AR Binding Ki (nM)), `O=c1cc(C(F)(F)F)c2cc3c(cc2[nH]1)CCCN3CC(F)(F)F` [Compound 198, 4-Trifluoromethyl-6-(2,2,2-trifluoroethyl)-6,7,8,9-tetrahydropyrido[2,3-g]quinolin-2(1H)-one] returned a Ki of 58 nM. Also, the EC50 at human AR [2] (setting [4]) turned out to be 1.7 nM. On human AR [2], the “AR Agonist CV-1 Cells Efficacy (%)” value turned out to be 47%. Moreover, on human AR [3] (setting [5]), the IC50 was more than 10000 nM. Moreover, the “AR Antagonist CV-1 Cells Efficacy (%)” value at human AR [3] was “na (na = not active (i.e. efficacy of <20 and potency of >10,000))”.
As to `CCCN1CCCc2cc3[nH]c(=O)cc(C(F)(F)F)c3cc21` [Compound 199, 4-Trifluoromethyl-6-propyl-6,7,8,9-tetrahydropyrido[2,3-g]quinolin-2(1H)-one], on human AR [1] (AR Binding Ki (nM)), affinity was put at a Ki of 236 nM. For the same compound, at human AR [2] (setting [4]), the EC50 came out at 42 nM. Also, the “AR Agonist CV-1 Cells Efficacy (%)” value on human AR [2] stood at 70%. Also, the IC50 on human AR [3] (setting [5]) was more than 10000 nM. At human AR [3], the “AR Antagonist CV-1 Cells Efficacy (%)” value is “na (na = not active (i.e. efficacy of <20 and potency of >10,000))”.
Take `O=c1cc(C(F)(F)F)c2cc3c(cc2[nH]1)CCCN3CC1CC1` [Compound 201, 4-Trifluoromethyl-6-cyclopropylmethyl-6,7,8,9-tetrahydropyrido[2,3-g]quinolin-2(1H)-one]: the Ki at human AR [1] (AR Binding Ki (nM)) amounted to 10 nM. Besides, the “AR Agonist CV-1 Cells Efficacy (%)” value on human AR [2] worked out at 76%. Besides, the IC50 on human AR [3] (setting [5]) was more than 10000 nM. Further, on human AR [3], the “AR Antagonist CV-1 Cells Efficacy (%)” value is “na (na = not active (i.e. efficacy of <20 and potency of >10,000))”.
Regarding `CC1=CC(C)(C)Oc2cc3oc(=O)cc(C(F)(F)F)c3cc21` [Compound 223, 6,8,8-Trimethyl-4-trifluoromethyl-8H-pyrano[3,2-g]coumarin], on human AR [1] (AR Binding Ki (nM)), the Ki is 37 nM. The compound also gave an EC50 on human AR [2] (setting [4]) of more than 10000 nM. Further, the “AR Agonist CV-1 Cells Efficacy (%)” value on human AR [2] is “na (na = not active (i.e. efficacy of <20 and potency of >10,000))”. In addition, on human AR [3] (setting [5]), the IC50 was 41 nM. The “AR Antagonist CV-1 Cells Efficacy (%)” value on human AR [3] stood at 66%.
On human AR [1] (AR Binding Ki (nM)), `CCC1=CC(C)(C)Oc2cc3oc(=O)cc(C(F)(F)F)c3cc21` [Compound 227, 6-Ethyl-8,8-dimethyl-4-trifluoromethyl-8H-pyrano[3,2-g]coumarin] displayed a Ki of 33 nM. Also, the EC50 at human AR [2] (setting [4]) was more than 10000 nM. Besides, the “AR Agonist CV-1 Cells Efficacy (%)” value at human AR [2] is “na (na = not active (i.e. efficacy of <20 and potency of >10,000))”. Also, the IC50 at human AR [3] (setting [5]) was 25 nM. Besides, the “AR Antagonist CV-1 Cells Efficacy (%)” value on human AR [3] was 75%.
Regarding “(+)-6,7-Dihydro-6-ethyl-4-trifluoromethyl-8H-pyrano[3,2-g]quinolin-2(1H)-one [Compound 218]”, the Ki on human AR [1] (read-out: AR Binding Ki) is 4.1 nM. Also, on human AR [2] (agonist potency or EC50, read-out: AR Agonist CV-1 Cells Potency), the EC50 stood at 10 nM. The “AR Agonist CV-1 Cells Efficacy (%)” value at human AR [2] is on record as 82%. Besides, the IC50 at human AR [3] (read-out: AR Antagonist CV-1 Cells Potency) is more than 10000 nM. The “AR Antagonist CV-1 Cells Efficacy (%)” value at human AR [3] is “na (na = not active (i.e. efficacy of <20 and potency of >10,000))”.
